Experiment in all cases: […]bicarbonate incorporation into malonyl-CoA
Type in all cases: biochemical

Test [1] addresses T1, ACCase (Phalaris brachystachys).
T1 construct: cytosolic form not separated
Particulars: 1.5 mM ATP, 5 mM acetyl-CoA, 5 mM MgCl2, 15 mM NaH14CO3, pH 8.3, 34 °C, S biotype, read-out: I50.

For test [2], the target named is T2, ACCase (Phalaris paradoxa).
T2 construct: cytosolic form not separated
To be noted: 1.5 mM ATP, 5 mM acetyl-CoA, 5 mM MgCl2, 15 mM NaH14CO3, pH 8.3, 34 °C, S biotype, read-out: I50.

Test [3] deals with T1, ACCase (Phalaris brachystachys). Particulars: 1.5 mM ATP, 5 mM acetyl-CoA, 5 mM MgCl2, 15 mM NaH14CO3, pH 8.3, 34 °C, R biotype (zygosity not given), stated gain, read-out: I50.
A further test addresses T3, ACCase (Phalaris minor).
T3 construct: cytosolic form not separated
Particulars: 1.5 mM ATP, 5 mM acetyl-CoA, 5 mM MgCl2, 15 mM NaH14CO3, pH 8.3, 34 °C, S biotype, read-out: I50.

The mark [4] stands for this setting: table labels herbicide diclofop-methyl, methods say DM acid.

Read-outs that look alike come from different tables or passages of the source.

In the case of `CCc1cc(C)cc(CC)c1-c1c(OC(=O)C(C)(C)C)n2n(c1=O)CCOCC2` [pinoxaden], the IC50 in test [1] was found to be 780 ± 10 nM; in test [2], 660 ± 90 nM; in test [3] it was 14400 ± 1900 nM; on ACCase (Phalaris minor) it was 590 ± 70 nM.
The matching figures for `CCCC(=NOCC)C1=C(O)CC(C2CCCSC2)CC1=O` (stereo not drawn) [cycloxydim]: 220 ± 20 nM, 460 ± 60 nM, 2400 ± 340 nM and 670 ± 910 nM.
On to `CC(Oc1ccc(Oc2ccc(Cl)cc2Cl)cc1)C(=O)O` (stereo not drawn) [DM acid], for which the IC50 in test [1] (setting [4]) is 320 ± 50 nM; in test [2] (setting [4]) it was 590 ± 230 nM; in test [3] (setting [4]), 6650 ± 780 nM; on ACCase (Phalaris minor) (setting [4]), 850 ± 30 nM.

These data come from article PMC8401167, “Point Mutations and Cytochrome P450 Can Contribute to Resistance to ACCase-Inhibiting Herbicides in Three Phalaris Species” (Plants, 2021).
